Test system: anesthetized rats
Assay: Blood pressure and left ventricular function of anesthetized rats
Type: in vivo, rat
Design: contractive pressure, change ratio: unit not given here
Method: All data were input into PowerLab/8Sp data acquisition and processing system via RM-6000 multi-channel polygraph, and recorded, analyzed and processed by PowerLab/8Sp.
The abdomen was opened 1.5 cm below xiphoid bone to isolate duodenum, a small incision was formed on the duodenum away from blood vessels by ophthalmic scissors, a catheter was inserted and the incision was fixed by suture for administration. After the end of operation and a further waiting period of 30 min, normal data were recorded once the indexes to be monitored were stable.
Test drugs were duodenally administered via the catheter, and the indexes were monitored 5, 15, 30, 60, 90 and 120 min after the administration. The change ratios of the indexes were calculated in accordance with the following formula, and were used for statistic analysis among groups.

[1] = 4.5 mg/kg duodenal, 5 min after administration
[2] = 4.5 mg/kg duodenal, 15 min after administration
[3] = 4.5 mg/kg duodenal, 30 min after administration
[4] = 4.5 mg/kg duodenal, 60 min after administration
[5] = 4.5 mg/kg duodenal, 90 min after administration
[6] = 4.5 mg/kg duodenal, 120 min after administration
[7] = 4.5 mg/kg duodenal, before administration
[8] = 9 mg/kg duodenal, 5 min after administration
[9] = 9 mg/kg duodenal, 15 min after administration
[10] = 9 mg/kg duodenal, 30 min after administration
[11] = 9 mg/kg duodenal, 60 min after administration

## CC1(C)C2CCC1(C)C(OC(=O)C(O)Cc1ccc(O)c(O)c1)C2 (stereo not drawn) [bornyl salvianate ester, bornyl β-(3,4-dihydroxylphenyl)-α-hydroxylpropionate ester]
4.5 mg/kg
  mean arterial pressure, systolic pressure and diastolic pressure (in words): exhibited no significant change
[1]
  change-rate of left intraventricular pressure MAX: 5429.3 ± 1279.7 mmHg/s
  change-rate of left intraventricular pressure MAX, change ratio: 0.4 ± 11.0
  change-rate of left intraventricular pressure, -MAX: −4152.9 ± 764.8 mm/Hg/s
  change-rate of left intraventricular pressure, -MAX, change ratio: −2.2 ± 8.2
  contractive pressure: 126.54 ± 25.94 mmHg
  contractive pressure, change ratio: −1.96 ± 11.16
  diastolic pressure: 68.68 ± 15.82 mmHg
  diastolic pressure, change ratio: −0.08 ± 12.81
  heart rate: 337.41 ± 47.67 beat/min
  heart rate, change ratio: 2.49 ± 7.18
  left intraventricular pressure: 128.67 ± 18.24 mmHg
  left intraventricular pressure, change ratio: 0.38 ± 6.72
  mean arterial pressure: 87.97 ± 18.89 mmHg
  mean arterial pressure, change ratio: −1.01 ± 11.95
[2]
  change-rate of left intraventricular pressure MAX: 5435.9 ± 1216.6 mmHg/s
  change-rate of left intraventricular pressure MAX, change ratio: 0.9 ± 11.4
  change-rate of left intraventricular pressure, -MAX: −4141.1 ± 755.6 mm/Hg/s
  change-rate of left intraventricular pressure, -MAX, change ratio: −2.4 ± 9.1
  contractive pressure: 128.80 ± 24.39 mmHg
  contractive pressure, change ratio: −0.05 ± 10.13
  diastolic pressure: 70.87 ± 15.08 mmHg
  diastolic pressure, change ratio: 3.38 ± 12.17
  heart rate: 347.56 ± 47.18 beat/min
  heart rate, change ratio: 5.67 ± 7.58
  left intraventricular pressure: 130.13 ± 18.12 mmHg
  left intraventricular pressure, change ratio: 1.51 ± 6.25
  mean arterial pressure: 90.18 ± 17.91 mmHg
  mean arterial pressure, change ratio: 1.66 ± 11.07
[3]
  change-rate of left intraventricular pressure MAX: 5408.8 ± 1352.2 mmHg/s
  change-rate of left intraventricular pressure MAX, change ratio: 0.1 ± 13.5
  change-rate of left intraventricular pressure, -MAX: −4090.5 ± 704.6 mm/Hg/s
  change-rate of left intraventricular pressure, -MAX, change ratio: −3.6 ± 6.5
  contractive pressure: 129.90 ± 23.86 mmHg
  contractive pressure, change ratio: 0.93 ± 11.47
  diastolic pressure: 71.78 ± 15.67 mmHg
  diastolic pressure, change ratio: 4.78 ± 14.39
  heart rate: 348.91 ± 52.11 beat/min
  heart rate, change ratio: 5.97 ± 9.72
  left intraventricular pressure: 129.67 ± 17.48 mmHg
  left intraventricular pressure, change ratio: 1.22 ± 7.07
  mean arterial pressure: 91.15 ± 17.95 mmHg
  mean arterial pressure, change ratio: 2.91 ± 12.81
[4]
  change-rate of left intraventricular pressure MAX: 5760.1 ± 1393.5 mmHg/s
  change-rate of left intraventricular pressure MAX, change ratio: 7.1 ± 18.3
  change-rate of left intraventricular pressure, -MAX: −4146.8 ± 820.5 mm/Hg/s
  change-rate of left intraventricular pressure, -MAX, change ratio: −2.4 ± 10.2
  contractive pressure: 135.97 ± 22.80 mmHg
  contractive pressure, change ratio: 5.64 ± 8.91
  diastolic pressure: 76.78 ± 14.34 mmHg
  diastolic pressure, change ratio: 12.13 ± 9.39
  heart rate: 365.43 ± 32.77 beat/min
  heart rate, change ratio: 12.05 ± 12.32
  left intraventricular pressure: 134.39 ± 19.12 mmHg
  left intraventricular pressure, change ratio: 4.73 ± 6.55
  mean arterial pressure: 96.51 ± 16.69 mmHg
  mean arterial pressure, change ratio: 8.95 ± 8.95
[5]
  change-rate of left intraventricular pressure MAX: 5706.1 ± 1390.6 mmHg/s
  change-rate of left intraventricular pressure MAX, change ratio: 7.6 ± 26.1
  change-rate of left intraventricular pressure, -MAX: −4156.0 ± 947.7 mm/Hg/s
  change-rate of left intraventricular pressure, -MAX, change ratio: −2.2 ± 15.9
  contractive pressure: 131.95 ± 25.10 mmHg
  contractive pressure, change ratio: 2.56 ± 13.11
  diastolic pressure: 74.71 ± 18.13 mmHg
  diastolic pressure, change ratio: 8.47 ± 17.66
  heart rate: 369.71 ± 35.54 beat/min
  heart rate, change ratio: 13.31 ± 13.05
  left intraventricular pressure: 130.91 ± 17.22 mmHg
  left intraventricular pressure, change ratio: 2.39 ± 9.41
  mean arterial pressure: 93.79 ± 20.11 mmHg
  mean arterial pressure, change ratio: 5.62 ± 15.30
[6]
  change-rate of left intraventricular pressure MAX: 5512.7 ± 1250.1 mmHg/s
  change-rate of left intraventricular pressure MAX, change ratio: 3.6 ± 20.4
  change-rate of left intraventricular pressure, -MAX: −3995.2 ± 837.9 mm/Hg/s
  change-rate of left intraventricular pressure, -MAX, change ratio: −5.6 ± 14.3
  contractive pressure: 128.62 ± 28.30 mmHg
  contractive pressure, change ratio: −0.49 ± 12.28
  diastolic pressure: 72.46 ± 20.46 mmHg
  diastolic pressure, change ratio: 4.39 ± 16.80
  heart rate: 360.36 ± 51.93 beat/min
  heart rate, change ratio: 9.40 ± 6.30
  left intraventricular pressure: 129.15 ± 18.53 mmHg
  left intraventricular pressure, change ratio: 0.79 ± 7.76
  mean arterial pressure: 91.18 ± 22.76 mmHg
  mean arterial pressure, change ratio: 2.06 ± 14.37
[7]
  change-rate of left intraventricular pressure MAX: 5380.2 ± 913.7 mmHg/s
  change-rate of left intraventricular pressure, -MAX: −4246.1 ± 669.3 mm/Hg/s
  contractive pressure: 129.06 ± 22.13 mmHg
  diastolic pressure: 68.47 ± 11.97 mmHg
  heart rate: 329.43 ± 43.77 beat/min
  left intraventricular pressure: 128.68 ± 20.18 mmHg
  mean arterial pressure: 88.67 ± 14.74 mmHg
4.5 mg/kg, 9 mg/kg and 18 mg/kg doses
  effect on the heart rate (in words): no significant effects
9 mg/kg and 18 mg/kg, significant at 60 and 120 min
  −dp/dt (in words): exhibited a decrease tendency
[8]
  change-rate of left intraventricular pressure MAX: 5388.9 ± 1187.0 mmHg/s
  change-rate of left intraventricular pressure MAX, change ratio: −0.7 ± 6.7
  change-rate of left intraventricular pressure, -MAX: −3908.5 ± 1013.0 mm/Hg/s
  change-rate of left intraventricular pressure, -MAX, change ratio: 0.0 ± 11.2
  contractive pressure: 131.10 ± 24.38 mmHg
  contractive pressure, change ratio: −1.14 ± 6.68
  diastolic pressure: 68.02 ± 18.77 mmHg
  diastolic pressure, change ratio: −2.47 ± 10.80
  heart rate: 374.04 ± 47.60 beat/min
  heart rate, change ratio: 0.28 ± 7.83
  left intraventricular pressure: 128.87 ± 25.63 mmHg
  left intraventricular pressure, change ratio: −0.03 ± 8.26
  mean arterial pressure: 89.05 ± 20.26 mmHg
  mean arterial pressure, change ratio: −1.79 ± 8.69
[9]
  change-rate of left intraventricular pressure MAX: 5321.6 ± 1133.0 mmHg/s
  change-rate of left intraventricular pressure MAX, change ratio: −1.6 ± 7.4
  change-rate of left intraventricular pressure, -MAX: −3792.8 ± 979.5 mm/Hg/s
  change-rate of left intraventricular pressure, -MAX, change ratio: −2.9 ± 10.2
  contractive pressure: 127.85 ± 23.92 mmHg
  contractive pressure, change ratio: −3.57 ± 7.14
  diastolic pressure: 66.18 ± 19.00 mmHg
  diastolic pressure, change ratio: −5.33 ± 9.64
  heart rate: 374.93 ± 47.51 beat/min
  heart rate, change ratio: 0.48 ± 7.36
  left intraventricular pressure: 127.06 ± 25.57 mmHg
  left intraventricular pressure, change ratio: −1.37 ± 9.10
  mean arterial pressure: 86.74 ± 20.25 mmHg
  mean arterial pressure, change ratio: −4.42 ± 8.30
[10]
  change-rate of left intraventricular pressure MAX: 5179.1 ± 1270.9 mmHg/s
  change-rate of left intraventricular pressure MAX, change ratio: −5.0 ± 7.8
  change-rate of left intraventricular pressure, -MAX: −3696.8 ± 997.3 mm/Hg/s
  change-rate of left intraventricular pressure, -MAX, change ratio: −5.5 ± 10.8
  contractive pressure: 122.58 ± 23.46 mmHg
  contractive pressure, change ratio: −7.38 ± 8.66
  diastolic pressure: 62.90 ± 17.46 mmHg
  diastolic pressure, change ratio: −9.50 ± 10.75
  heart rate: 361.94 ± 43.56 beat/min
  heart rate, change ratio: −3.00 ± 5.83
  left intraventricular pressure: 123.59 ± 25.06 mmHg
  left intraventricular pressure, change ratio: −4.07 ± 8.57
  mean arterial pressure: 82.79 ± 18.98 mmHg
  mean arterial pressure, change ratio: −8.42 ± 9.56
[11]
  change-rate of left intraventricular pressure MAX: 4966.9 ± 1297.4 mmHg/s
  change-rate of left intraventricular pressure MAX, change ratio: −9.2 ± 10.0
  change-rate of left intraventricular pressure, -MAX: −3569.5 ± 857.8 mm/Hg/s
  change-rate of left intraventricular pressure, -MAX, change ratio: −8.3 ± 10.2
  contractive pressure: 115.46 ± 23.90 mmHg

— patent US8017786B2, “Substituted β-phenyl-α-hydroxy-propanoic acid, synthesis method and use thereof” (Northwest University, priority 2006, dated 2011)
